Measured values: ChEMBL document CHEMBL1201862, “PubChem BioAssay data set” (2004)
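These data come from cells grown in 96-well plates and exposed to compound for 48 hours at five concentrations. GI50 = concentration required for 50% inhibition of growth.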 Calls of active or inactive are those of the source. Rule as the data show it: active = GI50 up to about 1.1 µM and inactive = higher.

Experiments:
Assay in all cases: NCI tumour cell line growth inhibition, 48 h
SF-295 = system: SF-295
U-251 = system: U-251
EKVX = system: EKVX
NCI-H23 = system: NCI-H23
PC-3 = system: PC-3
UACC-62 = system: UACC-62
Malme-3M = system: Malme-3M
T47D = system: T47D
TK-10 = system: TK-10
UACC-257 = system: UACC-257
Hs-578T = system: Hs-578T
COLO 205 = system: COLO 205
NCI/ADR-RES = system: NCI/ADR-RES
SK-MEL-2 = system: SK-MEL-2
OVCAR-5 = system: OVCAR-5
HCT-116 = system: HCT-116
SK-MEL-28 = system: SK-MEL-28
K562 = system: K562
DU-145 = system: DU-145
SK-OV-3 = system: SK-OV-3

Measured: GI50

O=C(/N=S(/NC(=O)c1ccccc1)C(Cl)(Cl)Cl)c1ccccc1 (stereo not given)
inactive: SF-295 9.25 µM | U-251 29.9 µM | EKVX 19.7 µM | NCI-H23 12.4 µM | PC-3 46.2 µM | UACC-62 22.6 µM | Malme-3M 17.5 µM | T47D 26.9 µM | TK-10 > 100 µM | UACC-257 35.2 µM | Hs-578T 40.6 µM | COLO 205 14.8 µM | NCI/ADR-RES 15.5 µM | SK-MEL-2 31.9 µM | OVCAR-5 22.9 µM | HCT-116 15.5 µM | SK-MEL-28 25.3 µM | K562 8.91 µM | DU-145 53.5 µM | SK-OV-3 > 31.6 µM

O=C1CC(NC(=O)C(F)(F)F)c2c(Br)sc(N3CCNCC3)c21 (stereo not given)
inactive: SF-295 > 100 µM | U-251 > 100 µM | EKVX > 100 µM | NCI-H23 > 100 µM | PC-3 > 100 µM | UACC-62 > 100 µM | Malme-3M > 100 µM | T47D > 100 µM | TK-10 > 100 µM | UACC-257 > 100 µM | Hs-578T > 100 µM | COLO 205 > 100 µM | NCI/ADR-RES > 100 µM | SK-MEL-2 13.2 µM | OVCAR-5 > 100 µM | HCT-116 > 100 µM | SK-MEL-28 > 100 µM | K562 > 100 µM | DU-145 > 100 µM | SK-OV-3 > 100 µM

O=C(NC(=O)c1c(Cl)nc2sccn12)Nc1ccc(Cl)cc1
inactive: SF-295 33.6 µM | U-251 24.8 µM | EKVX > 91.6 µM | NCI-H23 33.5 µM | PC-3 53 µM | UACC-62 > 100 µM | Malme-3M 84.3 µM | T47D 13.7 µM | TK-10 35.6 µM | UACC-257 > 100 µM | Hs-578T 8.81 µM | COLO 205 > 100 µM | NCI/ADR-RES > 70.3 µM | SK-MEL-2 59.3 µM | OVCAR-5 > 100 µM | HCT-116 69.2 µM | SK-MEL-28 > 100 µM | K562 > 100 µM | DU-145 > 83.4 µM | SK-OV-3 27.4 µM

C=C1C(=O)O[C@H]2[C@H]3O[C@@H](C[C@@H]12)[C@](C)(O)CC[C@@H]1O[C@@]1(C)CCC[C@H]3C
inactive: SF-295 68.9 µM | U-251 22.4 µM | EKVX 15.6 µM | NCI-H23 16.4 µM | PC-3 32 µM | UACC-62 16.5 µM | Malme-3M 12 µM | T47D 25.5 µM | TK-10 17.1 µM | UACC-257 22.9 µM | Hs-578T 30.3 µM | COLO 205 16.4 µM | NCI/ADR-RES 26.9 µM | SK-MEL-2 15.9 µM | OVCAR-5 36.2 µM | HCT-116 14.2 µM | SK-MEL-28 32 µM | K562 23 µM | DU-145 12.6 µM | SK-OV-3 29.4 µM
